# Laboratory results as given in article PMC10361251, “Absorption, tissue distribution, and excretion of glycycoumarin, a major bioactive coumarin from Chinese licorice (Glycyrrhiza uralensis Fisch)” (Frontiers in Pharmacology, 2023).
# Where two headings read alike, the source gives them in different places.
# Tests used:
# [1] = Plasma pharmacokinetics of free and total GCM after i.v. or oral administration (LC-MS/MS, with or without β-glucuronidase hydrolysis); type: in vivo, Sprague-Dawley rats
# Text: Male Sprague-Dawley rats (200 ± 20 g) were obtained from SJA Laboratory Animal Co. Ltd. (Hunan, China). All animals were kept under standard conditions of light, humidity, and temperature, and were allowed free access to a standard diet and water. All animal experiments were approved by the Animal Ethics Committee of Bijie City First People’s Hospital (BY[2019]-02-198). On the day before GCM administration, rats were subjected to a minor surgical procedure. Briefly, a polyurethane catheter (0.59 mm ID, 0.94 mm OD; Skillsmodel Limited, Beijing, China) was cannulated into the right jugular vein while under anesthesia induced using an intraperitoneal dose of chloral hydrate at 350 mg/kg. After surgery, the rats were individually placed in metabolism cages to allow recovery for at least 24 h. The rats were fasted overnight with free access to water before GCM administration.
# All GCM dosing drugs were freshly prepared at a concentration of 10 mg/mL prior to the experiments. Briefly, GCM was dissolved in normal saline containing 5% (v/v) Solutol HS 15. The animals were randomly divided into three groups. The i. v. administration group was treated intravenously with […] by quick injection through the cannulated catheter, and approximately 0.2 mL saline with 20 units of heparin was injected to flush the catheter and prevent blood coagulation. The oral administration group was treated with […] in a single gastric gavage dose, and the intraperitoneal injection group received 20 mg/kg GCM through intraperitoneal injection.
# Approximately 0.3 mL blood samples were collected via the cannula and placed into heparinized micro centrifuge (Eppendorf) tubes at multiple time-points (0.08, 0.25, 0.50, 1, 2, 3, 4, 5, 6, 7, 8, 10, 12, and 24 h) after GCM administration. The samples were centrifuged at 3000 × g for 5 min at 4°C for plasma separation; a 0.1 mL aliquot of each separated plasma sample was harvested and stored at −40°C until assessed.
# Free (parent drug) and/or total (including parent and glucuronidated metabolites) GCM concentrations in rat plasma, tissues, urine, and bile were quantitatively assayed using LC-MS/MS before and after hydrolytic treatment with β-glucuronidase.
# Aliquots (100 μL) of plasma samples were divided into two equal fractions for determining the free and total GCM concentrations, as previously described ([Chang et al., 2012]). Briefly, two aliquots of 50 μL plasma were incubated at 37°C with or without β-glucuronidase at a concentration of 1,200 units for total and free GCM, respectively. After 40 min of incubation, 10 μL of IS (1,000 ng/mL) was added to the mixtures followed by extraction with ethyl acetate. After centrifugation, the clear ethyl acetate layer was transferred and concentrated using a freeze-dry concentration method at 4°C. Subsequently, the remaining material was reconstituted in 200 μL of 90% (v/v) methanol. A 10 μL aliquot of the supernatant was injected into the LC-MS/MS system for analysis.
# An LC-MS/MS system comprising an Agilent 1260 HPLC system (Palo Alto, CA, United States) and an Applied Biosystems 4500 Q-Trap mass spectrometer equipped with an electrospray ionization source (Foster City, CA, United States) was used. Chromatographic separation was performed on a C18 column (100 × 4.6 mm, 3 μm, Thermo Fisher Scientific, Waltham, MA, United States) maintained at 30°C. The mobile phases comprised 0.1% (v/v) formic acid in water (A) and acetonitrile (B) at a flow rate of 0.4 mL/min. […] The total run time was 4 min. For mass spectrometry detection, the positive ion mode was used and the ion spray voltage was set at 5,500 V. The operating conditions were as follows: ion source temperature, 450°C; curtain gas, 20 psi; collision gas, medium. Ion source gases 1 and 2 were both at 60 psi. The collision energies were 37 and 42 V, and the declustering potentials for GCM and IS were 110 and 136 V, respectively. […]
# [2] = Urinary excretion of free and total GCM after i.v. administration; type: in vivo, rats; settings: Sprague-Dawley, rat, urine, iv, 10 mg/kg, free GCM, i.v. 10 mg/kg
# Description: Six rats were individually placed in metabolic cages and administered 10 mg/kg GCM by i. v. injection. Urine samples were collected over 24 h after administration in a urine reservoir containing 2 mL 0.1% HCl to avoid GCM degradation. Each urine reservoir was rinsed with 5 mL normal saline after collection. Every urine sample was diluted to 20 mL with normal saline and then stored at −40°C until assayed.
# (§1) Two aliquots of 50 μL prepared bile or urine samples were spiked with or without β-glucuronidase to determine the total or free GCM concentrations, as described above. The mixtures were incubated at 37°C for 40 min, and the mixtures were then spiked with 120 μL of ice-cold methanol containing IS to stop incubation. A 10 μL supernatant of each sample was used for the analysis.
# (§2) An LC-MS/MS system comprising an Agilent 1260 HPLC system (Palo Alto, CA, United States) and an Applied Biosystems 4500 Q-Trap mass spectrometer equipped with an electrospray ionization source (Foster City, CA, United States) was used. Chromatographic separation was performed on a C18 column (100 × 4.6 mm, 3 μm, Thermo Fisher Scientific, Waltham, MA, United States) maintained at 30°C. The mobile phases comprised 0.1% (v/v) formic acid in water (A) and acetonitrile (B) at a flow rate of 0.4 mL/min. […] The total run time was 4 min. For mass spectrometry detection, the positive ion mode was used and the ion spray voltage was set at 5,500 V. The operating conditions were as follows: ion source temperature, 450°C; curtain gas, 20 psi; collision gas, medium. Ion source gases 1 and 2 were both at 60 psi. The collision energies were 37 and 42 V, and the declustering potentials for GCM and IS were 110 and 136 V, respectively. Quantification was performed by multiple reaction monitoring (MRM) of molecular ions and product ions at m/z 369.3 and 284.7 for GCM and 337.0 and 280.9 for IS (Supplementary Figure S1). Analyst® software (Version 1.6.3) was used for data acquisition and peak integration.
# [3] = Biliary excretion of free and total GCM after i.v. administration; type: in vivo, rats; settings: free GCM, i.v. 10 mg/kg; for dose excreted: Sprague-Dawley, rat, bile, iv, 10 mg/kg, read-out: Bile recovery
# Description: Rats (n = 6) underwent bile fistula cannulation under anesthesia prior to bile sample collection. Bile samples from rats following i. v. GCM administration (10 mg/kg) were collected via cannula every 2 h over an 8 h collection period. Samples were collected from the catheter and delivered into acidified (0.1% HCl) centrifuge tubes. The rats were placed on thermostatic plates and kept under mild anesthesia throughout the experiment. The bile samples were diluted with saline and stored at −40°C until assayed.
# as §1, §2
# [4] = Tissue distribution of GCM after intraperitoneal administration; type: in vivo; settings: intraperitoneal 20 mg/kg, rats
# Description: Twenty-five rats were randomly divided into five groups and administered 20 mg/kg GCM intraperitoneally. Samples of various tissues (heart, liver, spleen, lung, kidney, and brain) of a certain weight were collected from the rats at 0.5, 1, 2, 4, and 6 h following GCM administration. All tissues were then rinsed with normal saline to clean the blood, blotted with filter paper, and stored at −40°C until use. Blood samples were collected via the carotid artery at the specified time points, and plasma samples were harvested as described above.
# Tissue samples were accurately weighed and homogenized in ice-cold saline (1:4, w/v) using a glass tissue homogenizer. Homogenized organs were centrifuged at 12,000 × g for 10 min to obtain clear supernatants; the supernatant was then transferred to a clean test tube kept at −40°C until assayed.
# as §2
# [5] = In vitro stability of GCM in pH buffers and gastrointestinal content solutions; type: in vitro ADME, rats; settings: 4 h at 37°C, 0.8 μg/mL
# Description: The gastrointestinal tract solutions were collected as described previously ([Kong et al., 2013]). Briefly, rats were fasted overnight and sacrificed; the entire stomach, small intestine, and colon of each rat were removed, and their contents were rapidly collected on ice. Each of the contents was suspended in buffer solutions at pH 1.2, 6.8, and 7.4. Following mixing and centrifugation, the protein content of the gastrointestinal tract solutions was assayed using the BCA protein assay kit from Solarbio (Beijing, China) and then adjusted to 12 mg/mL for further study.
# The stability of GCM in the gastrointestinal tract, including chemical stability and enzymatic stability, was assessed using an in vitro method as described previously ([Kong et al., 2013]). Briefly, GCM was spiked into different pH (1.2, 6.8, and 7.4) buffers and gastrointestinal content solutions containing the GCM at a final concentration of 0.8 μg/mL. The solutions were then mixed and incubated at 37°C. Aliquots of 200 μL samples were collected at 0.5, 1, 2, and 4 h, and 200 μL ice-cold methanol containing 200 ng/mL IS was added to stop the incubation. After centrifugation, 10 μL of the supernatant was used for analysis. Each experiment was performed in triplicate.
# CYP1A2 = test system: CYP1A2; set-up: method as in Li et al., 2017; Kuang et al., 2021; settings: human liver microsomes; ref Li et al., 2017; Kuang et al., 2021; cited from earlier work
# CYP2B6 = test system: CYP2B6; set-up: method as in Li et al., 2017; Kuang et al., 2021; settings: human liver microsomes; ref Li et al., 2017; Kuang et al., 2021; cited from earlier work
# CYP2C8 = test system: CYP2C8; set-up: method as in Li et al., 2017; Kuang et al., 2021; settings: human liver microsomes; ref Li et al., 2017; Kuang et al., 2021; cited from earlier work
# CYP2C9 = settings: human liver microsomes, cited from earlier work
# CYP2C19 = test system: CYP2C19; set-up: method as in Li et al., 2017; Kuang et al., 2021; settings: human liver microsomes; ref Li et al., 2017; Kuang et al., 2021; cited from earlier work
# [6] = set-up: method as in Li et al., 2017; Kuang et al., 2021; settings: human liver microsomes; ref Li et al., 2017; Kuang et al., 2021; cited from earlier work
# CYP2D6 = test system: CYP2D6; set-up: method as in Qiao et al., 2014a; settings: ref Qiao et al., 2014a; cited from earlier work
# CYP1A1 = test system: CYP1A1; set-up: method as in Kim et al., 2016; settings: human liver microsomes; ref Kim et al., 2016; cited from earlier work
# [7] = set-up: method as in Wang et al., 2015; settings: ref Wang et al., 2015; cited from earlier work
# [8] = male, Sprague-Dawley, iv, free GCM, i.v. 10 mg/kg, rat plasma
smiles,measurement,setting,value
"COc1c(CC=C(C)C)c(O)cc2oc(=O)c(-c3ccc(O)cc3O)cc12 [GCM, Glycycoumarin]",Parent GCM in plasma collected after 6 h,"[1]; free GCM, i.v. 10 mg/kg",almost undetectable
same,CL/F,"[1]; free GCM, i.v. 10 mg/kg, rats",149 ± 33.3 mL/min/kg
same,"Vd, λz/F","[1]; free GCM, i.v. 10 mg/kg, rats, in L/kg",9.25 ± 3.13
same,Free GCM in plasma after 2 h,"[1]; free GCM, oral 20 mg/kg",almost undetectable
same,AUC0-∞ of conjugated (glucuronidated) GCM relative to free GCM,"[1]; i.v. 10 mg/kg, rat plasma",approximately four-times higher
same,AUC(0-inf),[1]; [8],1170 ± 283 ng·h/mL
same,AUC(0-t),[1]; [8],1160 ± 284 ng·h/mL
same,C0,[1]; [8],5690 ± 1360 ng/mL
same,half-life,"[1]; male, Sprague-Dawley, iv, free GCM, i.v. 10 mg/kg, rat plasma, read-out: t1/2, λz (converted)",42.6 ± 6.6 min
same,dose excreted,"[2]; 0–12 h, read-out: Urine recovery",0.28 ± 0.25%
same,dose excreted,"[2]; 0–24 h, read-out: Urinary recovery over 24 h",0.39%
same,dose excreted,"[2]; 12–24 h, read-out: Urine recovery",0.11 ± 0.1%
same,dose excreted,[3]; 0–2 h,0.2 ± 0.12%
same,dose excreted,[3]; 2–4 h,0.08 ± 0.06%
same,dose excreted,[3]; 4–6 h,0.05 ± 0.04%
same,Parent form excreted from bile over 0–8 h,[3]; 0–8 h,< 1 % of the delivered dose
same,Blood-brain barrier crossing,[4],cannot cross the blood-brain barrier
same,GCM in brain samples,[4],not detected
same,Tissue concentration rank order,[4],"liver, followed by that in the spleen, lung, heart, and kidney"
same,GCM levels in most tissues by 6 h after dosing,[4]; 6 h,undetectable levels
same,Stability in colon content solutions,[5],unstable
same,Stability in small intestine content solutions,[5],unstable
same,Stability in stomach content solutions,[5],relatively stable
same,Stability in pH buffer solutions,"[5]; pH 1.2, 6.8 and 7.4",relatively stable
same,CYP1A2 inhibition,CYP1A2,strongly inhibit
same,CYP2B6 inhibition,CYP2B6,strongly inhibit
same,CYP2C8 inhibition,CYP2C8,strongly inhibit
same,CYP2C9 inhibition,"CYP2C9; ref Li et al., 2017, Kuang et al., 2021",strongly inhibit
same,CYP2C19 inhibition,CYP2C19,strongly inhibit
same,UGT1A19 inhibition,[6],strongly inhibit
same,CYP2D6 activity inhibition,CYP2D6,significantly inhibits
COc1c(CC=C(C)C)c(O)cc2oc(=O)c3c4ccc(O)cc4oc3c12 [Glycyrol],CYP2C9 inhibition,"CYP2C9; ref Kim et al., 2016",competitive inhibitory effects
same,CYP1A1 inhibition,CYP1A1,competitive inhibitory effects
same,Absorption into the blood after oral administration,[7],not absorbed into the blood
